# Tests used:
# [1] = biological target: T1, bovine serum albumin (BSA) (Bos taurus, UniProt P02769); experiment: Cannabis smoke bubbled through aqueous BSA solution, cannabinoids determined by HPLC (Example 1a); type: binding; conditions: BSA in Hartmann's solution; FIG. 2A
# T1 construct: purchased Millipore, USA
# Protocol: Protein-bound cannabinoid was formed according to the following method. An aqueous albumin solution was prepared by adding 20 (mg)) of bovine serum albumin (BSA, from Millipore, USA) to 10 milliliters (ml) ml Hartmann's solution (B. Braun Melsungen AG, Germany). BSA was completely dissolved using a shaker (Heidolph POLYMAX 1040) at 50 revolutions per minute.
# A cannabis-filled cigarette was formed using a cigarette paper containing 0.8 gr ground cannabis (provided by “Seach” Israel), from flowers and budding leaves. A Pasteur pipette was cut longitudinally at its wide end, and the cigarette was lodged in to the cut end. The narrow end of the pipette was attached to a syringe. The cigarette was lit in a fume hood, and cigarette smoke was collected in the syringe by pulling the syringe plunger. The smoke was then slowly released into the BSA solution by depressing the plunger. Approximately 350 ml of smoke-containing air was gently bubbled through the BSA solution.
# As a control, a solution of 10 ml of Hartmann's solution was prepared without the addition of BSA and a similar procedure of cannabis smoke formation and bubbling was performed.
# Samples having a volume of 3 ml of the BSA solution and the control solution were each inserted in to HPLC glass vials and the open vials were inserted into a vacuum oven for 24 hours at 37° Celsius.
# The solid phase after the evaporation was crushed in to a fine powder using mortar and pestle. The powder was extracted using Methanol chloroform 9:1 extract solution, sonicated for 30 minutes, and was then filtered and added in to an HPLC testing tube.
# HPLC was performed using an HP1050 AGILENT, DAD detector, XBridge C18 3.5 μm 4.6×150 mm column, and according to the following parameters: […]
# BSA [2] = biological target: T2, BSA (Bos taurus, UniProt P02769); experiment: Cannabis smoke/vapor passed through BSA/water/ethanol solution, cannabinoid profile (Example 1d); type: binding, bovine; conditions: 33% ethanol, 48 hours incubation, washed
# T2 sequence (P02769 25-607): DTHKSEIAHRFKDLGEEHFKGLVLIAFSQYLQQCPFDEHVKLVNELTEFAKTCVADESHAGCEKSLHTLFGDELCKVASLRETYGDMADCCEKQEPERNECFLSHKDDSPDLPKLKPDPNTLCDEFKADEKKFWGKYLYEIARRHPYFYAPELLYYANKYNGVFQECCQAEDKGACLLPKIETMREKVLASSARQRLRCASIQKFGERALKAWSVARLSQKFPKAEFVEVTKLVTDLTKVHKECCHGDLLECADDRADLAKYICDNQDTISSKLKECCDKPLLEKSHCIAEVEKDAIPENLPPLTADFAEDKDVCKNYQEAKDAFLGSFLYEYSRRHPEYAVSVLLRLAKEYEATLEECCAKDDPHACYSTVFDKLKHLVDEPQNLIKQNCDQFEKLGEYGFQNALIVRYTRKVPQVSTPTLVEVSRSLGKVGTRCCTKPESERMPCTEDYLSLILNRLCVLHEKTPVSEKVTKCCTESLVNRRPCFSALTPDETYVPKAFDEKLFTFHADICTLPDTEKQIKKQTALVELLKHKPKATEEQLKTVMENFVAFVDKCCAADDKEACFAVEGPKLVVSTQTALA
# Protocol: (§1) To show which cannabinoid compounds are solubilized in processes using BSA versus organic solvents, cannabis from two different batches was smoked and or vaporized. Vapor was formed using a “volcano” vaporizer at a temperature of 210° C. The smoke/vapor was passed through either a BSA/water/ethanol solution described in example 1b, comprising 33% by volume ethanol or through a pure ethanol (99% ethanol) solution. Solutions were stirred using a magnetic stirrer and were incubated for 48 hours, during which time, most of the ethanol evaporated. One of the batches of cannabis was high in THC, and the other batch of cannabis was high in both THC and CBD.
# The BSA/water/ethanol solution was washed after smoke or vapor was combined with it, and the amount of cannabinoids present was analyzed. The results of the comparison of relative concentration of cannabinoids (relative to total cannabinoid content) as expressed in percent (weight/weight), for a strain of cannabis high in THC are shown in the table below.
# [3] = Cannabis smoke/vapor passed through pure ethanol, cannabinoid profile (Example 1d); type: physicochemical; conditions: for relative concentration of cannabinoids (relative to total cannabinoid content), Vapor passed through ethanol: vapor at 210° C.
# Protocol: as §1
# bovine γ-globulin = experiment: Cannabis vapor streamed through protein solution, cannabinoids adsorbed (Example 1f); type: binding; conditions: vapor of cannabis high in CBD; 1 mg/ml protein, ethanol:water 1:2, 30° C., 24 hours
# Protocol: (§2) The protein solutions were formed using ethanol and water in a 1:2 ratio. The solutions were incubated at 30° C. for 24 hours.
# [4] = biological target: T3, rice recombinant human serum albumin (HSA) (Homo sapiens, UniProt P02768); experiment: as above; type: binding; conditions: vapor of cannabis high in CBD; 1 mg/ml protein, ethanol:water 1:2, 30° C., 24 hours
# T3 construct: host or cells: rice (recombinant expression host)
# T3 sequence (P02768 25-609): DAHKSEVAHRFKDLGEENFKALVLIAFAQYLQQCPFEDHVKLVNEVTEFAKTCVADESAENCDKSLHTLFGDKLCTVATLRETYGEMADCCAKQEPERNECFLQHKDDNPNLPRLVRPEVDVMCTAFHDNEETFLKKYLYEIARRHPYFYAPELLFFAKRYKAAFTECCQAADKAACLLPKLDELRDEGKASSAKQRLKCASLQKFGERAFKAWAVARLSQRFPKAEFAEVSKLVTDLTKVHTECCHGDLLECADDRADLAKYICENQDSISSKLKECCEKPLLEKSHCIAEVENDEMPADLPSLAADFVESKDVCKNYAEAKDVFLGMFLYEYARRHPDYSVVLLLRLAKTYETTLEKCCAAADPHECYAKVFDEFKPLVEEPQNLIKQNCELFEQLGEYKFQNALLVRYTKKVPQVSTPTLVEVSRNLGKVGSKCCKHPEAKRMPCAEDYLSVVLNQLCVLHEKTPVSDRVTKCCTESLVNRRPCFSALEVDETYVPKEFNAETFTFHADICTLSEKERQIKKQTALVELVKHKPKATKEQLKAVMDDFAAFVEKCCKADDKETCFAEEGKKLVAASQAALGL
# Protocol: as §2
# [5] = Cannabinoid content of cannabis extract (Example 2a); type: physicochemical; conditions: methanol/chloroform 9:1 cannabis extract
# Protocol: (§3) Cannabis extract was prepared as follows: In short, cannabis plant matter is dried, ground and homogenized to form ground cannabis. The ground cannabis is extracted with methanol/chloroform (volume/volume ratio of 9:1). Sonication and filtration is then performed. Identity of cannabinoids is determined by HPLC by evaporation, dissolution in an appropriate solvent.
# (§4) Drying of the cannabis plant matter occurs under high vacuum at about 37±2° C. for about 24 hours and then ground to form a fine powder. 200 mg of ground powder is combined with 10 ml of methanol/chloroform, and sonicated in an ice bath for 30 minutes at maximum power. The supernatant is then filtered through a 0.2 micron filter.
# (§5) A sample of the cannabis extract was analyzed for content of cannabinoids. The cannabis extract was then combined with albumin solution having 20% ethanol at 10 mg/ml (BSA) and incubated for 2 hours at room temperature.
# BSA [6] = biological target: T2, BSA; experiment: Cannabis extract combined with albumin solution, cannabinoids adsorbed to BSA (Example 2a); type: binding, bovine; conditions: albumin solution 10 mg/ml (BSA) with 20% ethanol, 2 hours at room temperature
# Protocol: as §3, §4, §5
# albumin (BSA) = albumin (BSA) (Bos taurus, UniProt P02769); experiment: Ethanolic cannabinoid solution mixed with aqueous albumin, protein-bound cannabinoid quantified (Example 2b); type: binding, bovine; parameters: protein-bound cannabinoid quantified, Vapor: unit not given beside the values; conditions: 100 microliters ethanolic solution + 500 microliters 5 mg/ml BSA, 30° C., 12 hours, non-adsorbed cannabinoids separated
# albumin (BSA), sequence (P02769 25-607): as the sequence (P02769 25-607) above
# Protocol: 100 microliters of ethanolic cannabinoid solution from cannabis vapor and cannabis smoke were each mixed with 500 microliters of aqueous albumin solution that had been prepared at a concentration of 5 mg albumin (BSA)/ml. The aqueous albumin solution combined with the ethanolic cannabinoid solution was incubated at 30° C. for 12 hours in open tubes. After 12 hours, the tubes were mixed and centrifuged, and non-adsorbed cannabinoids were separated from the solution. Concentrated protein-bound cannabinoid was dried and quantified as described below.
# [7] = 3 g high THC strain; 200 ml ethanol concentrated to about 3 ml
# ovalbumin (hen) = biological target: T4, ovalbumin (hen) (Gallus gallus, UniProt P01012); experiment: Cannabis vapor streamed through protein solution, cannabinoids adsorbed (Example 1f); type: binding; conditions: vapor of cannabis high in CBD; 1 mg/ml protein, ethanol:water 1:2, 30° C., 24 hours
# T4 sequence (P01012 1-386): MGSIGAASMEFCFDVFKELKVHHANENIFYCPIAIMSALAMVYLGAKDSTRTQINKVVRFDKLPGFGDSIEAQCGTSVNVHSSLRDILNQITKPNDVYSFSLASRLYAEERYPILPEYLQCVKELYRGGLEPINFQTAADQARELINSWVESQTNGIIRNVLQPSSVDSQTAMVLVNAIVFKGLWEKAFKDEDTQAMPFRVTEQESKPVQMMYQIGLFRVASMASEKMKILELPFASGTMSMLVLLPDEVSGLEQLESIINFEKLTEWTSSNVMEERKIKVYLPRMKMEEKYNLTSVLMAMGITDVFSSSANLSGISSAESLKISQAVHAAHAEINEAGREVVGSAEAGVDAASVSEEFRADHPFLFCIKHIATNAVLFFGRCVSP
# Protocol: as §2
# [8] = strain of cannabis high in CBD and THC
# T1 sequence (P02769 25-607): as the sequence (P02769 25-607) above
Compound,active cannabinoids found by HPLC in BSA aqueous solution after cannabis smoke was introduced [1],"relative concentration of cannabinoids (relative to total cannabinoid content), Smoke passed through BSA/water/ethanol (BSA [2]; [8])","relative concentration of cannabinoids (relative to total cannabinoid content), Smoke passed through BSA/water/ethanol (BSA [2]; strain of cannabis high in THC)","relative concentration of cannabinoids (relative to total cannabinoid content), Smoke passed through ethanol [3, 8]","relative concentration of cannabinoids (relative to total cannabinoid content), Vapor passed through ethanol [3, 8]","relative concentration of cannabinoids (relative to total cannabinoid content), Smoke passed through ethanol ([3]; strain of cannabis high in THC)","relative concentration of cannabinoids (relative to total cannabinoid content), Vapor passed through ethanol ([3]; strain of cannabis high in THC)","percentage of each cannabinoid relative to total cannabinoids adsorbed to protein, Bovine γ-globulin (bovine γ-globulin) [percentage]","percentage of each cannabinoid relative to total cannabinoids adsorbed to protein, Rice recombinant HSA [4] [percentage]","percentage of each cannabinoid relative to total cannabinoids, Extract [5] [percentage]","percentage of each cannabinoid relative to total cannabinoids adsorbed to protein, Adsorbed to BSA after extract combined with BSA solution (BSA [6]) [percentage]","protein-bound cannabinoid quantified, Smoke (albumin (BSA))","protein-bound cannabinoid quantified, Vapor (albumin (BSA))","amount of cannabinoids dissolved in ethanol, Smoke [7] [micrograms/ml]","amount of cannabinoids dissolved in ethanol, Vapor [7] [micrograms/ml]","relative concentration of cannabinoids (relative to total cannabinoid content), Vapor passed through BSA/water/ethanol (BSA [2]; [8])","percentage of each cannabinoid relative to total cannabinoids adsorbed to protein, Ovalbumin (ovalbumin (hen)) [percentage]"
"CCCCCc1cc(O)c2c(c1)OC(C)(CCC=C(C)C)C=C2 (centres unmarked) [CBC, cannabichromene]",dissolved in the solution,0.0 percent (weight/weight),0.0 percent (weight/weight),3.1 percent (weight/weight),3.8 percent (weight/weight),1.3 percent (weight/weight),0.0 percent (weight/weight),0,0,1,3,2.13,1.845,90.873,54.7468,–,–
"CCCCCc1cc(O)c(C/C=C(\C)CCC=C(C)C)c(O)c1C(=O)O [CBGA, cannabigerolic acid]",–,0.0 percent (weight/weight),0.0 percent (weight/weight),0.4 percent (weight/weight),0.0 percent (weight/weight),0.6 percent (weight/weight),0.1 percent (weight/weight),0,0,3,2,0.58,1.43,23.088,28.7668,0.0 percent (weight/weight),0
"CCCCCc1cc(O)c2c(c1)OC(C)(C)c1ccc(C)cc1-2 [CBN, cannabinol]",dissolved in the solution,0.0 percent (weight/weight),0.0 percent (weight/weight),1.6 percent (weight/weight),0.0 percent (weight/weight),1.7 percent (weight/weight),1.6 percent (weight/weight),0,0,2,2,6.5,4.855,276.856,135.5254,0.0 percent (weight/weight),0
"CCCCCc1cc2c(c(O)c1C(=O)O)[C@@H]1C=C(C)CC[C@H]1C(C)(C)O2 [THCA, tetrahydrocannabinoic acid]",dissolved in the solution,5.3 percent (weight/weight),9.3 percent (weight/weight),0.7 percent (weight/weight),0.3 percent (weight/weight),0.9 percent (weight/weight),1.1 percent (weight/weight),100,0,22,29,2.16,4.26,83.765,72.8432,0.0 percent (weight/weight),0
